In a compilation of properties of binary mixtures (doi:10.1021/je901058s):

Test: xn = mol fraction of the nth substance listed
Conditions: 101 kPa

CCCCCCCCn1cc[n+](C)c1.O=[N+]([O-])[O-] + CCCO
viscosity [mPa·s]
Conditions | 283.15 K | 288.15 K | 293.15 K | 298.15 K | 303.15 K | 308.15 K | 313.15 K | 318.15 K | 323.15 K | 328.15 K
x2 = 0.107 | 1091 | 730 | 510 | 365 | 267 | 201 | 153 | 120 | 95.4 | –
x2 = 0.258 | 490 | – | 258 | 191 | – | 113 | 86.9 | – | 53.4 | 36.5
x2 = 0.364 | 218 | 164 | 127 | 99.7 | – | 63 | 51.1 | 42.1 | 35 | 25
x2 = 0.47 | 114 | 85.8 | – | 60 | 48.5 | 39.7 | – | 27.6 | 23.44 | 17.34
x2 = 0.556 | 65.4 | – | – | 34.4 | 28.6 | – | 20.38 | 17.44 | 15.08 | –
x2 = 0.671 | 28.8 | 23.8 | – | 16.84 | 14.41 | 12.45 | – | – | 8.41 | 6.55
x2 = 0.756 | 16.16 | 13.66 | 11.67 | 10.07 | 8.77 | 7.63 | 6.75 | 5.93 | 5.21 | 4.2
x2 = 0.866 | 7.84 | 6.8 | 5.85 | – | 4.48 | 3.94 | 3.52 | 3.14 | 2.82 | 2.31

CCCCCCCCn1cc[n+](C)c1.O=[N+]([O-])[O-] + CCCCO
viscosity [mPa·s]
Conditions | 283.15 K | 288.15 K | 293.15 K | 298.15 K | 303.15 K | 308.15 K | 313.15 K | 318.15 K | 323.15 K | 328.15 K
x2 = 0.168 | – | 530 | 380 | 277 | 207 | 158 | – | 97.4 | 73.2 | 48.9
x2 = 0.261 | 440 | 311 | 229 | 172 | 132 | 103 | 78.5 | 63.4 | 51.6 | 35.5
x2 = 0.358 | 241 | 179 | – | 105 | 80.6 | – | – | – | 35.7 | 25.5
x2 = 0.458 | 126 | 98.8 | 74.2 | – | – | 39.3 | 32.6 | 27.3 | – | –
x2 = 0.57 | 59.4 | 47.4 | – | – | 26.4 | 22.29 | 18.98 | 16.3 | – | 10.88
x2 = 0.676 | 29.9 | 24.7 | – | 17.43 | – | – | 11.15 | 9.75 | – | 6.84
x2 = 0.754 | 18.67 | 15.69 | 13.36 | 11.44 | 9.92 | 8.74 | 7.63 | 6.76 | 5.98 | 4.76
x2 = 0.848 | 10.45 | 9.03 | – | – | 5.92 | 5.15 | 4.56 | 4.03 | – | 2.93
